According to US7141598B2, “Imidazole derivatives, production method thereof and use thereof” (Takeda Pharmaceutical Company, Ltd., priority 2000, dated 2006):

Legend:
[1] = biological target: T1, steroid C17,20-lyase (Rattus norvegicus, UniProt P11715); test: Assay of steroid C17,20-lyase-inhibitory activity in rat (testis microsome); format: biochemical; details: male SD rat orchis microsome, 10 nM [1.2-3H]-17α-hydroxyprogesterone, 37° C., 7 min; read-out: IC50 (steroid C17,20-lyase inhibition)
T1 construct: The orchis was homogenized and centrifuged to prepare a microsome; from tissue; host or cells: testis (orchis) microsomes of 13-week-old male SD rat
T1 sequence (P11715 1-507): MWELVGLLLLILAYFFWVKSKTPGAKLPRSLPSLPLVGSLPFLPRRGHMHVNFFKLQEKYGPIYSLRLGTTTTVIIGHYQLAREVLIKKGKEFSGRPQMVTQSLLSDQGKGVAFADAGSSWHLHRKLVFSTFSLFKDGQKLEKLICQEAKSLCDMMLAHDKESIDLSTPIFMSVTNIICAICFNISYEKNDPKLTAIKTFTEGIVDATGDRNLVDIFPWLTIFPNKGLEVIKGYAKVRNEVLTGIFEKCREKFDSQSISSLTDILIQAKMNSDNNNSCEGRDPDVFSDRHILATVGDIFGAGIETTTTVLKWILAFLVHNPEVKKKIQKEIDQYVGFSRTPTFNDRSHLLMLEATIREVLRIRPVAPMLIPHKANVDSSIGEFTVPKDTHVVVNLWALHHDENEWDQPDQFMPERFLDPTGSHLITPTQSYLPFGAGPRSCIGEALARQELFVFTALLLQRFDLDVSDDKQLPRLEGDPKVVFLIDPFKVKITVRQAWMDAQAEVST
Procedure: Assay of steroid C17,20-Lyase-Inhibitory Activity in Rat
The assay was performed according to The Prostate, Vol. 26, 140–150 (1995).
The orchis was removed from 13-week-old male SD rat. The orchis was homogenized and centrifuged to prepare a microsome. The [1.2-^3H]-17α-hydroxyprogesterone having a final concentration of 10 nM, NADPH solution and the test compound were dissolved in a 100 mM phosphate buffer solution (10 μl, pH 7.4). Microsome protein (7 μg/10 μl) was added and the mixture was incubated at 37° C. for 7 min. Ethyl acetate (40 μl) was added and the mixture was centrifuged, and the substrate and the product (androstenedione and testosterone) in the supernatant were separated by a silica gel thin layer chromatography (TLC). The spot was detected and quantitatively assayed by a BAS 2000 bioimage analyzer.

[2] = test system: testosterone biosynthesis; test: Assay of inhibitory effect on testosterone biosynthesis in rats; format: in vivo; details: 25 mg/kg oral, male SD rat, serum testosterone 2 h after administration, relative to control group
Procedure: Assay of Inhibitory Effect on Testosterone Biosynthesis in Rats
The test compound (25 mg/kg) was orally administered to 9-week-old male SD (Sprague Dawley) rat. Blood was taken at 2 h after administration of the compound and the concentration of testosterone in the obtained serum was assayed by radioimmunoassay. The proportion (T/C, %) of testosterone concentration of the test drug administration group relative to the testosterone concentration of the control group was calculated to determine testosterone synthesis-inhibitory activity.

[3] = biological target: T2, human CYP3A4 (Homo sapiens, UniProt P08684); test: Assay of human CYP3A4-inhibitory activity; format: biochemical; details: testosterone 100 μM, human CYP3A4 10 pmol/ml, 37° C., 30 min; read-out: IC50 (CYP3A4 inhibition, 6β-hydroxytestosterone production)
T2 construct: purchased GENTEST
Procedure: Assay of Human CYP3A4-Inhibitory Activity
Performed as in the following according to Journal of Biological Chemistry, vol. 256, 11937 (1983).
A phosphate buffer solution (50 mM, pH 7.4) containing testosterone (final concentration 100 μM, hereinafter the same), human CYP3A4 (10 pmol/ml, manufactured by GENTEST), NADPH producing system (0.5 mM NADP, 5 mM glucose-6-phosphate, 5 mM magnesium chloride, 1.5 units/ml glucose-6-phosphate dehydrogenase) and the test compound was incubated at 37° C. for 30 min. Acetonitrile was added to the reaction mixture and the mixture was stirred and centrifuged. The 6β-hydroxytestosterone in the obtained supernatant was analyzed by high performance liquid chromatography.

T2 sequence (P08684 whole entry): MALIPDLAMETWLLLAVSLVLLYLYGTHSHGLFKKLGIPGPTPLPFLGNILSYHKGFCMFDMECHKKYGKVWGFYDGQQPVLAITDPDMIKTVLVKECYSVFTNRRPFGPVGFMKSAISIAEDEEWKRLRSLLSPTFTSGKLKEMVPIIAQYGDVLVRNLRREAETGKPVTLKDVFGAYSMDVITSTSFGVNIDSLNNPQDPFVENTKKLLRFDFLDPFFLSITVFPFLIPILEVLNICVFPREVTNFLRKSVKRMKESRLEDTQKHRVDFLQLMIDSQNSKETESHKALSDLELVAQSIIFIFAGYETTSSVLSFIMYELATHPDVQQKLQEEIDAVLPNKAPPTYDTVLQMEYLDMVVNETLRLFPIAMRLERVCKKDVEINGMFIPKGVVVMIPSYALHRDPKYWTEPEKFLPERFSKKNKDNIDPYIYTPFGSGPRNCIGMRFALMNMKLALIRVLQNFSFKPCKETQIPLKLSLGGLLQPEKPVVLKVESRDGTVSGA

IC50 [1] [nM]	IC50 [3] [nM]	SMILES	inhibitory effect on testosterone biosynthesis (T/C, %) [2] [%]
48	–	CNC(=O)c1ccc2cc(C3(O)CCn4cncc43)ccc2c1 (single isomer, unassigned; (+)) [Example 11, (+)-6-(7-hydroxy-6,7-dihydro-5H-pyrrolo[1,2-c]imidazol-7-yl)-N-methyl-2-naphthamide]	–
10	9600	OC1(c2cccc(-c3ccc(F)cc3)c2)CCn2cncc21 (stereo not shown) [Example 3, 7-(4′-fluoro[1,1′-biphenyl]-3-yl)-6,7-dihydro-5H-pyrrolo[1,2-c]imidazol-7-ol]	4.4
25	> 10000	OC1(c2ccc(-c3ccc(F)cc3)cc2)CCn2cncc21 (stereo not shown) [Example 4, 7-(4′-fluoro[1,1′-biphenyl]-4-yl)-6,7-dihydro-5H-pyrrolo[1,2-c]imidazol-7-ol]	–
54	–	CNC(=O)c1ccc2cc(C3(O)CCn4cncc43)ccc2c1 (stereo not shown) [Example 5, 6-(7-hydroxy-6,7-dihydro-5H-pyrrolo[1,2-c]imidazol-7-yl)-N-methyl-2-naphthamide]	–
